Test results: PubChem BioAssay (NCI)
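Each compound was tested at five concentrations against cells in 96-well plates for 48 hours. TGI is the concentration that stops growth completely.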

How the values were obtained:
Assay in all cases: NCI-60 cell line screen, 48 h
KM12 colon = tested on: KM12 colon
HOP-62 NSCLC = tested on: HOP-62 NSCLC
SK-MEL-5 melanoma = tested on: SK-MEL-5 melanoma
MDA-N = tested on: MDA-N
SF-268 CNS = tested on: SF-268 CNS
EKVX NSCLC = tested on: EKVX NSCLC
M14 melanoma = tested on: M14 melanoma
RXF 393 renal = tested on: RXF 393 renal
OVCAR-5 ovarian = tested on: OVCAR-5 ovarian
LOX IMVI melanoma = tested on: LOX IMVI melanoma
RPMI-8226 leukemia = tested on: RPMI-8226 leukemia
HCT-15 colon = tested on: HCT-15 colon
MDA-MB-231 breast = tested on: MDA-MB-231 breast
OVCAR-8 ovarian = tested on: OVCAR-8 ovarian
TK-10 renal = tested on: TK-10 renal
U251 CNS = tested on: U251 CNS
PC-3 prostate = tested on: PC-3 prostate
MCF7 breast = tested on: MCF7 breast
NCI-H226 lung = tested on: NCI-H226 lung
SK-MEL-2 melanoma = tested on: SK-MEL-2 melanoma
CAKI-1 renal = tested on: CAKI-1 renal
SNB-19 CNS = tested on: SNB-19 CNS
CCRF-CEM leukemia = tested on: CCRF-CEM leukemia
DU-145 prostate = tested on: DU-145 prostate
T-47D breast = tested on: T-47D breast
NCI-H522 lung = tested on: NCI-H522 lung
HL-60(TB) leukemia = tested on: HL-60(TB) leukemia
SNB-75 CNS = tested on: SNB-75 CNS
A549 NSCLC = tested on: A549 NSCLC
OVCAR-3 ovarian = tested on: OVCAR-3 ovarian
SK-MEL-28 melanoma = tested on: SK-MEL-28 melanoma
HT29 colon = tested on: HT29 colon
SN12C renal = tested on: SN12C renal
SK-OV-3 ovarian = tested on: SK-OV-3 ovarian
K-562 leukemia = tested on: K-562 leukemia
IGROV1 ovarian = tested on: IGROV1 ovarian
ACHN renal = tested on: ACHN renal
SW-620 colon = tested on: SW-620 colon
MDA-MB-435 = tested on: MDA-MB-435
SR leukemia = tested on: SR leukemia
MOLT-4 leukemia = tested on: MOLT-4 leukemia
786-0 renal = tested on: 786-0 renal
UO-31 renal = tested on: UO-31 renal
HCT-116 colon = tested on: HCT-116 colon
SF-539 CNS = tested on: SF-539 CNS
COLO 205 colon = tested on: COLO 205 colon
NCI-H460 lung = tested on: NCI-H460 lung
NCI/ADR-RES ovarian = tested on: NCI/ADR-RES ovarian
SF-295 CNS = tested on: SF-295 CNS
UACC-257 melanoma = tested on: UACC-257 melanoma
HS 578T breast = tested on: HS 578T breast
HOP-92 NSCLC = tested on: HOP-92 NSCLC
A498 renal = tested on: A498 renal
NCI-H23 lung = tested on: NCI-H23 lung
OVCAR-4 ovarian = tested on: OVCAR-4 ovarian
MALME-3M melanoma = tested on: MALME-3M melanoma
HCC-2998 colon = tested on: HCC-2998 colon

CC1(C)CC(=O)c2c(nc3c(ccc4ccccc43)c2-c2ccc(NC(=O)CCCC(=O)Nc3ccc(-c4c5c(nc6c4ccc4ccccc46)CC(C)(C)CC5=O)cc3)cc2)C1
TGI (KM12 colon): > 100 µM | TGI (HOP-62 NSCLC): > 100 µM | TGI (SK-MEL-5 melanoma): > 100 µM | TGI (MDA-N): > 100 µM | TGI (SF-268 CNS): > 100 µM | TGI (EKVX NSCLC): > 100 µM | TGI (M14 melanoma): > 100 µM | TGI (RXF 393 renal): > 100 µM | TGI (OVCAR-5 ovarian): > 100 µM | TGI (LOX IMVI melanoma): > 100 µM | TGI (RPMI-8226 leukemia): > 100 µM | TGI (HCT-15 colon): > 100 µM | TGI (MDA-MB-231 breast): > 100 µM | TGI (OVCAR-8 ovarian): > 100 µM | TGI (TK-10 renal): > 100 µM | TGI (U251 CNS): > 100 µM | TGI (PC-3 prostate): > 100 µM | TGI (MCF7 breast): > 100 µM | TGI (NCI-H226 lung): > 100 µM | TGI (SK-MEL-2 melanoma): > 100 µM | TGI (CAKI-1 renal): > 100 µM | TGI (SNB-19 CNS): > 100 µM | TGI (CCRF-CEM leukemia): > 100 µM | TGI (DU-145 prostate): > 100 µM | TGI (T-47D breast): > 100 µM | TGI (NCI-H522 lung): > 100 µM | TGI (HL-60(TB) leukemia): > 100 µM | TGI (SNB-75 CNS): > 100 µM | TGI (A549 NSCLC): > 100 µM | TGI (OVCAR-3 ovarian): > 100 µM | TGI (SK-MEL-28 melanoma): > 100 µM | TGI (HT29 colon): > 100 µM | TGI (SN12C renal): > 100 µM | TGI (SK-OV-3 ovarian): > 100 µM | TGI (K-562 leukemia): > 100 µM | TGI (IGROV1 ovarian): > 100 µM | TGI (ACHN renal): > 100 µM | TGI (SW-620 colon): > 100 µM | TGI (MDA-MB-435): > 100 µM | TGI (SR leukemia): > 100 µM | TGI (MOLT-4 leukemia): > 100 µM | TGI (786-0 renal): > 100 µM | TGI (UO-31 renal): > 100 µM | TGI (HCT-116 colon): > 100 µM | TGI (SF-539 CNS): > 100 µM | TGI (COLO 205 colon): > 100 µM | TGI (NCI-H460 lung): > 100 µM | TGI (NCI/ADR-RES ovarian): > 100 µM | TGI (SF-295 CNS): > 100 µM | TGI (UACC-257 melanoma): > 100 µM | TGI (HS 578T breast): > 100 µM

CCOC(=O)Cn1nc2ccc(Nc3c(C)[n+]([O-])c4cc(F)c(OCC)cc4[n+]3[O-])cc2n1
TGI (KM12 colon): > 100 µM | TGI (HOP-62 NSCLC): > 100 µM | TGI (SK-MEL-5 melanoma): > 100 µM | TGI (MDA-N): > 100 µM | TGI (SF-268 CNS): > 100 µM | TGI (EKVX NSCLC): > 100 µM | TGI (M14 melanoma): > 100 µM | TGI (RXF 393 renal): 51.9 µM | TGI (OVCAR-5 ovarian): > 100 µM | TGI (LOX IMVI melanoma): > 100 µM | TGI (RPMI-8226 leukemia): > 100 µM | TGI (HOP-92 NSCLC): 63.8 µM | TGI (HCT-15 colon): > 100 µM | TGI (MDA-MB-231 breast): > 100 µM | TGI (OVCAR-8 ovarian): > 100 µM | TGI (TK-10 renal): 71.8 µM | TGI (U251 CNS): > 100 µM | TGI (PC-3 prostate): > 100 µM | TGI (MCF7 breast): > 100 µM | TGI (A498 renal): > 100 µM | TGI (NCI-H226 lung): > 100 µM | TGI (SK-MEL-2 melanoma): > 100 µM | TGI (CAKI-1 renal): > 100 µM | TGI (CCRF-CEM leukemia): > 100 µM | TGI (DU-145 prostate): > 100 µM | TGI (T-47D breast): > 100 µM | TGI (NCI-H522 lung): > 100 µM | TGI (HL-60(TB) leukemia): > 100 µM | TGI (NCI-H23 lung): > 100 µM | TGI (OVCAR-3 ovarian): > 100 µM | TGI (SK-MEL-28 melanoma): > 100 µM | TGI (HT29 colon): > 100 µM | TGI (SK-OV-3 ovarian): > 100 µM | TGI (K-562 leukemia): > 100 µM | TGI (IGROV1 ovarian): > 100 µM | TGI (ACHN renal): 90.2 µM | TGI (SW-620 colon): > 100 µM | TGI (MDA-MB-435): > 100 µM | TGI (SR leukemia): > 100 µM | TGI (MOLT-4 leukemia): > 100 µM | TGI (786-0 renal): > 100 µM | TGI (UO-31 renal): > 100 µM | TGI (HCT-116 colon): > 100 µM | TGI (OVCAR-4 ovarian): > 100 µM | TGI (SF-539 CNS): > 100 µM | TGI (NCI-H460 lung): > 100 µM | TGI (NCI/ADR-RES ovarian): > 100 µM | TGI (SF-295 CNS): > 100 µM | TGI (UACC-257 melanoma): > 100 µM | TGI (HS 578T breast): > 100 µM

O=c1ccn(C2OC(COC3CCCCO3)C(OC3CCCCO3)C2OC2CCCCO2)c(=O)n1-c1ccccc1 (stereo not drawn)
TGI (KM12 colon): > 100 µM | TGI (HOP-62 NSCLC): > 100 µM | TGI (SK-MEL-5 melanoma): > 100 µM | TGI (MDA-N): > 100 µM | TGI (SF-268 CNS): > 100 µM | TGI (EKVX NSCLC): > 100 µM | TGI (M14 melanoma): > 100 µM | TGI (RXF 393 renal): > 100 µM | TGI (OVCAR-5 ovarian): > 100 µM | TGI (LOX IMVI melanoma): > 100 µM | TGI (MALME-3M melanoma): > 100 µM | TGI (RPMI-8226 leukemia): > 100 µM | TGI (HOP-92 NSCLC): > 100 µM | TGI (HCT-15 colon): > 100 µM | TGI (MDA-MB-231 breast): > 100 µM | TGI (OVCAR-8 ovarian): > 100 µM | TGI (TK-10 renal): > 100 µM | TGI (U251 CNS): > 100 µM | TGI (PC-3 prostate): > 100 µM | TGI (MCF7 breast): > 100 µM | TGI (A498 renal): > 100 µM | TGI (NCI-H226 lung): > 100 µM | TGI (SK-MEL-2 melanoma): > 100 µM | TGI (CAKI-1 renal): > 100 µM | TGI (SNB-19 CNS): > 100 µM | TGI (CCRF-CEM leukemia): > 100 µM | TGI (DU-145 prostate): > 100 µM | TGI (T-47D breast): > 100 µM | TGI (NCI-H522 lung): > 100 µM | TGI (HL-60(TB) leukemia): > 100 µM | TGI (SNB-75 CNS): > 100 µM | TGI (NCI-H23 lung): > 100 µM | TGI (A549 NSCLC): > 100 µM | TGI (OVCAR-3 ovarian): > 100 µM | TGI (SK-MEL-28 melanoma): > 100 µM | TGI (HT29 colon): > 100 µM | TGI (SN12C renal): > 100 µM | TGI (SK-OV-3 ovarian): > 100 µM | TGI (K-562 leukemia): > 100 µM | TGI (IGROV1 ovarian): > 100 µM | TGI (ACHN renal): > 100 µM | TGI (SW-620 colon): > 100 µM | TGI (HCC-2998 colon): > 100 µM | TGI (MDA-MB-435): > 100 µM | TGI (SR leukemia): > 100 µM | TGI (MOLT-4 leukemia): > 100 µM | TGI (786-0 renal): > 100 µM | TGI (UO-31 renal): > 100 µM | TGI (HCT-116 colon): > 100 µM | TGI (OVCAR-4 ovarian): > 100 µM | TGI (SF-539 CNS): > 100 µM | TGI (COLO 205 colon): > 100 µM | TGI (NCI-H460 lung): > 100 µM | TGI (NCI/ADR-RES ovarian): > 100 µM | TGI (SF-295 CNS): > 100 µM | TGI (UACC-257 melanoma): > 100 µM | TGI (HS 578T breast): > 100 µM
